Results on 13 compounds are retold here after patent publication US20260193264A1, “BENZOYPARAZINE PYRAZINES AND THEIR USES” (FOGHORN THERAPEUTICS INC., priority 2022, published 2026).

In assay [1] the target is T1, HiBiT-BRM fusion protein in stable HeLa cell line (Homo sapiens, UniProt P51531).
T1 construct: expressed in transfected cells
The assay can be described thus: HiBiT-BRM cell-based degradation assay (Nano-Glo HiBiT Lytic Detection, 24 h). Further details: DC50: scale not given here. The conditions noted are these: HeLa HiBiT-BRM cells; for DC50: read-out: BRM HiBit Degradation IC50; for BRM HiBit Degradation Maximum (%): top dose 30 μM. On the procedure:
(§1) Procedure: A stable HeLa cell line expressing HiBiT-BRM was generated. On day 0, 5000 cells were seeded in 40 μL of media into each well of 384-well cell culture plates. On day 1, cells were treated with 120 nL DMSO or 120 nL of 3-fold serially DMSO-diluted compounds (10 points in duplicate with 30 μM as final top dose). Subsequently plates were incubated for 24 h in a standard tissue culture incubator and equilibrated at room temperature for 15 minutes. Nano-Glo HiBiT Lytic Detection System (Promega N3050) reagent was freshly prepared and 20 ul was added to each well. Upon addition of this LgBit-containing reagent, the HiBiT and LgBiT proteins associate to form the luminescent NanoBiT luciferase. The plates were shaken for 10 minutes at room temperature and the bioluminescence read using an EnVision plate reader (PerkinElmer).
The degradation % was calculated using the following formula: % degradation=100%−100%×(Lumsample−LumLC)/(LumHC−LumLC). DMSO treated cells are employed as High Control (HC) and 2 μM of a known BRM/BRG1 degrader standard treated cells are employed as Low Control (LC).

Assay [2] concerns the target T2, HiBit-BRG1 fusion protein in stable HeLa cell line expressing HiBit-BRG1 and LgBit (Homo sapiens, UniProt P51532).
T2 construct: expressed in transfected cells
Nature of the assay: HiBiT-BRG1 cell-based degradation assay (Nano-Glo HiBiT, 24 h). The note with it: HeLa HiBit-BRG1/LgBit cells; for Dmax: read-out: BRG1 HiBit Degradation Maximum (%); for DC50: read-out: BRMG1 HiBit Degradation IC50. As for the experimental part: as §1, with “On day 1, cells were treated with 120 nL DMSO or 120 nL of 3-fold serially DMSO-diluted compounds (10 points in duplicate with 30 μM as final top dose).” left out, “(PerkinElmer). For measurement of BRG1 degradation, a stable HeLa cell line expressing HiBit-BRG1 and LgBit was generated. The same protocol as above was then followed. The degradation % was calculated using the following formula: % degradation=100%−100%×(Lumsample−LumLC)/(LumHC−LumLC). DMSO treated cells are employed as High Control (HC) and 2 μM of a known BRM/BRG1 degrader standard treated cells are employed as Low Control (LC).” for “(PerkinElmer).”
(In general: With HiBiT, luminescence reflects the tagged protein that the partner subunit can reach.)

T2 sequence (P51532 whole entry, the tested form may be a part): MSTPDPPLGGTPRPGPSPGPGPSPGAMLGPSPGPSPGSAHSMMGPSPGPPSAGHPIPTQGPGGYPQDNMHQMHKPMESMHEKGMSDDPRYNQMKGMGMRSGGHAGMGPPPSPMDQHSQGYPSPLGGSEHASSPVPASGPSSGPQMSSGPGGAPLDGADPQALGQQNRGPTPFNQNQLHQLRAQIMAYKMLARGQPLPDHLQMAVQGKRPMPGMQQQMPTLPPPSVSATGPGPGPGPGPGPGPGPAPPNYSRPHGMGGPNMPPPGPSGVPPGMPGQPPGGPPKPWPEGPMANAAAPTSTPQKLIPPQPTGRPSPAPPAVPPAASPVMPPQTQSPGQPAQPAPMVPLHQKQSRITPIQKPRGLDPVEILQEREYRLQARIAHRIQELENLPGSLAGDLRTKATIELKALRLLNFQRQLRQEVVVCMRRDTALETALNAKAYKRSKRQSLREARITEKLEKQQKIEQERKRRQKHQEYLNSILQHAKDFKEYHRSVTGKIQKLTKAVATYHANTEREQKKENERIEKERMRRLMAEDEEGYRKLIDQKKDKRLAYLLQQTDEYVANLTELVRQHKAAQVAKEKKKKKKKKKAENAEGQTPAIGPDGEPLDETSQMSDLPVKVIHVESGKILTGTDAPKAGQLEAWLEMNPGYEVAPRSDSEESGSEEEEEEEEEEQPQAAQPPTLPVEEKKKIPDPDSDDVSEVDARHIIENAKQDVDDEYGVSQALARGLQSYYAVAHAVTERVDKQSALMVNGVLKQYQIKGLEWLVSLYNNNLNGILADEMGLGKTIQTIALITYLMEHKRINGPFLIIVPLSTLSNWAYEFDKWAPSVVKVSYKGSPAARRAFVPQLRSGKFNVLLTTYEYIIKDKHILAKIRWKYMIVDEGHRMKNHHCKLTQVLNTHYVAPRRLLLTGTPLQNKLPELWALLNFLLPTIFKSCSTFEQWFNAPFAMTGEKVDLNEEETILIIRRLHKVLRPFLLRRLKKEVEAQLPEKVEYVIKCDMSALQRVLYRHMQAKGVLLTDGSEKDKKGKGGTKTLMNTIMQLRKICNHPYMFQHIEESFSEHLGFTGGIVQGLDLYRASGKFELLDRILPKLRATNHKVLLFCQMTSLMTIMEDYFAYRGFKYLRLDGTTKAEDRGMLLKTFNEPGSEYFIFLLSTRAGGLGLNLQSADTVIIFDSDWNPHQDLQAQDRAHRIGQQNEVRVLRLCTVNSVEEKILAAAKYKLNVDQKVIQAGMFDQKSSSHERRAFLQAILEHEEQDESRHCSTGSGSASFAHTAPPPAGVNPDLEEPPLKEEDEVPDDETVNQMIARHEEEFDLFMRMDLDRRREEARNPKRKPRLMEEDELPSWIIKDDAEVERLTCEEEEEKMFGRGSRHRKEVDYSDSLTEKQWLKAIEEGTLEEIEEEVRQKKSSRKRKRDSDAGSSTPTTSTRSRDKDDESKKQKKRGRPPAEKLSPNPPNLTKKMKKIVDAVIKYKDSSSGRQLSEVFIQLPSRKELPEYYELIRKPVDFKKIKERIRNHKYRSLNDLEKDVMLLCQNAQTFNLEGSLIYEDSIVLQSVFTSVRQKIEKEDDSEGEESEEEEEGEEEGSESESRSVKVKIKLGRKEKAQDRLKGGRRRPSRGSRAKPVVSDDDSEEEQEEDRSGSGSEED
T1 sequence (P51531 whole entry, the tested form may be a part): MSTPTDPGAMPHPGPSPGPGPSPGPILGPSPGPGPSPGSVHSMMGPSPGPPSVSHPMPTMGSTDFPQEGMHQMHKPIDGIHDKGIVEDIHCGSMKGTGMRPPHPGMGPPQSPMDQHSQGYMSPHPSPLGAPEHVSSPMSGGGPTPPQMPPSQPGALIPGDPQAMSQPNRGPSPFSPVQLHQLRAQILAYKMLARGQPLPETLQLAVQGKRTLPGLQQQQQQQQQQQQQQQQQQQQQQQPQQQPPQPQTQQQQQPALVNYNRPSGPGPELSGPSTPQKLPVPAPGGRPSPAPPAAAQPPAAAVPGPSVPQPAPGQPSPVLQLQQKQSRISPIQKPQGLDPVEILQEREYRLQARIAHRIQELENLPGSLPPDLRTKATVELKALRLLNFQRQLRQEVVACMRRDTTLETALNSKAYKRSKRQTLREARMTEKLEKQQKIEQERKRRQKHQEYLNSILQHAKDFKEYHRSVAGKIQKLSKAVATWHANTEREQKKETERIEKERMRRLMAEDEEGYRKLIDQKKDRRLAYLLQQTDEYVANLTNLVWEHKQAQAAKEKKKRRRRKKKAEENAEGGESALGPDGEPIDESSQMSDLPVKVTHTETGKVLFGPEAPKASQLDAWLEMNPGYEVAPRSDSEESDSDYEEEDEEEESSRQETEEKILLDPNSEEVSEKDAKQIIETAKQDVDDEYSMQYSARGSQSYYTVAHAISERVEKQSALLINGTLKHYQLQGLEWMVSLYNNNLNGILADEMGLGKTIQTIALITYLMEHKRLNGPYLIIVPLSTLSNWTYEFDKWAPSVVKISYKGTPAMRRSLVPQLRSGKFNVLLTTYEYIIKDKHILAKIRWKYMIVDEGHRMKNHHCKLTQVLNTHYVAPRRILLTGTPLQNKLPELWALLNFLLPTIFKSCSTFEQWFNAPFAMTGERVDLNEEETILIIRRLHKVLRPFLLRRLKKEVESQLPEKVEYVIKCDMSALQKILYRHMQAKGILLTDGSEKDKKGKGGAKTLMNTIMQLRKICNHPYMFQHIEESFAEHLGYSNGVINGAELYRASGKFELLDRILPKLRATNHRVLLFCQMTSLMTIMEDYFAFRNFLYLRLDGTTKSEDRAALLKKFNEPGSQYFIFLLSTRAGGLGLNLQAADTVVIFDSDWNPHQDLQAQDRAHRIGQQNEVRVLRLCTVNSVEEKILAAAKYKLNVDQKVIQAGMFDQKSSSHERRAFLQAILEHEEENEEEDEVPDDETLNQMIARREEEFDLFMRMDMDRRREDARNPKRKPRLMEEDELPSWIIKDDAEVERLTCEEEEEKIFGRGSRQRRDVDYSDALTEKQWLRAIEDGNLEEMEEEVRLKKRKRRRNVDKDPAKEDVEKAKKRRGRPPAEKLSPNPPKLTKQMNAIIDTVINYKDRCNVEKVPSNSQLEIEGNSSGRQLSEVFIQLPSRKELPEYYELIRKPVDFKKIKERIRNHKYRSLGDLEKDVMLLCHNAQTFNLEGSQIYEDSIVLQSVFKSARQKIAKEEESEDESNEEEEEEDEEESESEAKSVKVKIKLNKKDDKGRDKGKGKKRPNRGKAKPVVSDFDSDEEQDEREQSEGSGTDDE

Consider `Cc1cc(-c2cc([C@H](C(=O)N3C[C@H](O)C[C@H]3C(=O)N[C@@H](C)c3ccc(-c4scnc4C)cc3)C(C)C)on2)cnc1N1CCC(c2ccc3cc(-c4ccccc4O)nnc3c2)CC1` [Compound 88, (2S,4R)-4-hydroxy-1-((R)-2-(3-(6-(4-(3-(2-hydroxyphenyl)cinnolin-7-yl)piperidin-1-yl)-5-methylpyridin-3-yl)isoxazol-5-yl)-3-methylbutanoyl)-N-((S)-1-(4-(4-methylthiazol-5-yl)phenyl)ethyl)pyrrolidine-2-carboxamide], for which, in assay [1], the DC50 was under 10 nM and the “BRM HiBit Degradation Maximum (%)” value is “A (“A” indicates maximum degradation ≥75%)”. Further, the Dmax in assay [2] (top dose 30 μM) was under 50%.

For `Cc1ncsc1-c1ccc([C@H](C)NC(=O)[C@@H]2C[C@@H](O)CN2C(=O)[C@@H](c2cc(N3CC4=C(CN(c5ccc6cc(-c7ccccc7O)nnc6c5)C4)C3)no2)C(C)C)cc1` [Compound 228, (2S,4R)-4-hydroxy-1-((R)-2-(3-(5-(3-(2-hydroxyphenyl)cinnolin-7-yl)-3,4,5,6-tetrahydropyrrolo[3,4-c]pyrrol-2(1H)-yl)isoxazol-5-yl)-3-methylbutanoyl)-N-((S)-1-(4-(4-methylthiazol-5-yl)phenyl)ethyl)pyrrolidine-2-carboxamide], in assay [1], the DC50 is under 10 nM and the “BRM HiBit Degradation Maximum (%)” value is given as “A (“A” indicates maximum degradation ≥75%)”. Also, the DC50 in assay [2] is under 10 nM. In assay [2] (top dose 30 μM), the Dmax is over 75%.

On to `Cc1ncsc1-c1ccc([C@H](C)NC(=O)[C@@H]2C[C@@H](O)CN2C(=O)[C@@H](c2cc(N3CCC4(CC3)CCN(c3ccc5cc(-c6ccccc6O)nnc5c3)C(=O)C4)no2)C(C)C)cc1` [Compound 103, (2S,4R)-4-hydroxy-1-((R)-2-(3-(9-(3-(2-hydroxyphenyl)cinnolin-7-yl)-8-oxo-3,9-diazaspiro[5.5]undecan-3-yl)isoxazol-5-yl)-3-methylbutanoyl)-N-((S)-1-(4-(4-methylthiazol-5-yl)phenyl)ethyl)pyrrolidine-2-carboxamide], for which, in assay [1], the DC50 was under 10 nM and the “BRM HiBit Degradation Maximum (%)” value was “A (“A” indicates maximum degradation ≥75%)”. The Dmax in assay [2] (top dose 30 μM) is under 50%.

As for `Cc1ncsc1-c1ccc([C@H](C)NC(=O)[C@@H]2C[C@@H](O)CN2C(=O)C(C(C)C)n2cc(N3CCC4CCN(c5ccc6cc(-c7ccccc7O)nnc6c5)C4C3)nn2)cc1` (stereo partly drawn) [Compound 248, (2S,4R)-4-hydroxy-1-(2-(4-(1-(3-(2-hydroxyphenyl)cinnolin-7-yl)octahydro-6H-pyrrolo[2,3-c]pyridin-6-yl)-1H-1,2,3-triazol-1-yl)-3-methylbutanoyl)-N-((S)-1-(4-(4-methylthiazol-5-yl)phenyl)ethyl)pyrrolidine-2-carboxamide], the DC50 in assay [1] is under 10 nM; in assay [2], over 10 nM. The “BRM HiBit Degradation Maximum (%)” value in assay [1] was “A (“A” indicates maximum degradation ≥75%)”. In addition, the Dmax in assay [2] (top dose 30 μM) is over 75%.

Turning to `Cc1ncsc1-c1ccc([C@H](C)NC(=O)[C@@H]2C[C@@H](O)CN2C(=O)C(C(C)C)n2cc(N3CCN(CC4CCN(c5ccc6cc(-c7ccccc7O)nnc6c5)CC4)CC3)nn2)cc1` (stereo partly drawn) [Compound 247, (2S,4R)-4-hydroxy-1-(2-(4-(4-((1-(3-(2-hydroxyphenyl)cinnolin-7-yl)piperidin-4-yl)methyl)piperazin-1-yl)-1H-1,2,3-triazol-1-yl)-3-methylbutanoyl)-N-((S)-1-(4-(4-methylthiazol-5-yl)phenyl)ethyl)pyrrolidine-2-carboxamide], the DC50 in assay [1] and in assay [2] was under 10 nM in each case. In addition, in assay [1], the “BRM HiBit Degradation Maximum (%)” value was “A (“A” indicates maximum degradation ≥75%)”. Also, in assay [2] (top dose 30 μM), the Dmax is over 75%.

`Cc1ncsc1-c1ccc([C@H](C)NC(=O)[C@@H]2C[C@@H](O)CN2C(=O)[C@H](c2cc(-c3cnc(N4CCC(c5ccc6nnc(-c7ccccc7O)cc6c5)CC4)nc3)no2)C(C)C)cc1` [Compound 41]: the “BRM HiBit Degradation Maximum (%)” value in assay [1] is on record as “C (“C” indicates maximum degradation <50%)”. Moreover, the Dmax in assay [2] (top dose 30 μM) was under 50%.

In the case of `Cc1ncsc1-c1ccc([C@H](C)NC(=O)[C@@H]2C[C@@H](O)CN2C(=O)[C@@H](c2cc(N3CC4(CN(c5ccc6nnc(-c7ccccc7O)cc6c5)C4)C3)no2)C(C)C)cc1` [Compound 66, (2S,4R)-4-hydroxy-1-((R)-2-(3-(6-(3-(2-hydroxyphenyl)cinnolin-6-yl)-2,6-diazaspiro[3.3]heptan-2-yl)isoxazol-5-yl)-3-methylbutanoyl)-N-((S)-1-(4-(4-methylthiazol-5-yl)phenyl)ethyl)pyrrolidine-2-carboxamide], in assay [1], the DC50 was under 10 nM and the “BRM HiBit Degradation Maximum (%)” value is on record as “A (“A” indicates maximum degradation ≥75%)”. Also, in assay [2] (top dose 30 μM), the Dmax is under 50%.

Consider `CC(C)[C@@H](C(=O)N1C[C@H](O)C[C@H]1C(=O)N[C@@H](C)c1ccc(F)cc1)n1cc(-c2ccc3nnc(-c4cccc(F)c4O)cc3c2)nn1` [Compound 177, (2S,4R)-1-((S)-2-(4-(3-(3-fluoro-2-hydroxyphenyl)cinnolin-6-yl)-1H-1,2,3-triazol-1-yl)-3-methylbutanoyl)-N-((S)-1-(4-fluorophenyl)ethyl)-4-hydroxypyrrolidine-2-carboxamide], for which the DC50 in assay [1] was under 10 nM; in assay [2], over 10 nM. Further, the “BRM HiBit Degradation Maximum (%)” value in assay [1] was “A (“A” indicates maximum degradation ≥75%)”. For the same compound, in assay [2] (top dose 30 μM), the Dmax is over 75%.

Consider `COc1cc2nnc(-c3ccccc3O)cc2cc1N1CC2(CN(c3cc([C@H](C(=O)N4C[C@H](O)C[C@H]4C(=O)N[C@@H](C)c4ccc(-c5scnc5C)cc4)C(C)C)on3)C2)C1` [Compound 158, (2S,4R)-4-hydroxy-1-((R)-2-(3-(6-(3-(2-hydroxyphenyl)-7-methoxycinnolin-6-yl)-2,6-diazaspiro[3.3]heptan-2-yl)isoxazol-5-yl)-3-methylbutanoyl)-N-((S)-1-(4-(4-methylthiazol-5-yl)phenyl)ethyl)pyrrolidine-2-carboxamide], for which the DC50 in assay [1] and in assay [2] was under 10 nM each time. In assay [1], the “BRM HiBit Degradation Maximum (%)” value is “A (“A” indicates maximum degradation ≥75%)”. In addition, in assay [2] (top dose 30 μM), the Dmax is over 75%.

On to `Cc1ncsc1-c1ccc([C@H](C)NC(=O)[C@@H]2C[C@@H](O)CN2C(=O)[C@@H](c2cc(N3CCC4(CC3)CC(c3ccc5cc(-c6ccccc6O)nnc5c3)C4)no2)C(C)C)cc1` [Compound 26], for which, in assay [1], the DC50 was under 10 nM and the “BRM HiBit Degradation Maximum (%)” value is “A (“A” indicates maximum degradation ≥75%)”. Further, the DC50 in assay [2] was over 10 nM. Moreover, in assay [2] (top dose 30 μM), the Dmax was over 75%.

Regarding `Cc1ncsc1-c1ccc([C@H](C)NC(=O)[C@@H]2C[C@@H](O)CN2C(=O)[C@@H](c2cc(N3CC4(CN(c5cc(C(F)F)c6cc(-c7ccccc7O)nnc6c5)C4)C3)no2)C(C)C)cc1` [Compound 205, (2S,4R)-1-((R)-2-(3-(6-(5-(difluoromethyl)-3-(2-hydroxyphenyl)cinnolin-7-yl)-2,6-diazaspiro[3.3]heptan-2-yl)isoxazol-5-yl)-3-methylbutanoyl)-4-hydroxy-N-((S)-1-(4-(4-methylthiazol-5-yl)phenyl)ethyl)pyrrolidine-2-carboxamide], in assay [1], the DC50 was under 10 nM and the “BRM HiBit Degradation Maximum (%)” value is given as “A (“A” indicates maximum degradation ≥75%)”. In addition, the Dmax in assay [2] (top dose 30 μM) is under 50%.

Regarding `Cc1ncsc1-c1ccc([C@H](C)NC(=O)[C@@H]2C[C@@H](O)CN2C(=O)[C@H](c2cc(-c3cnc(N4CCN(c5ccc6cc(-c7ccccc7O)nnc6c5)CC4)nc3)no2)C(C)C)cc1` [Compound 46], in assay [1], the DC50 was over 100 nM and the “BRM HiBit Degradation Maximum (%)” value is listed as “A (“A” indicates maximum degradation ≥75%)”. In addition, the “BRG1 HiBit Degradation Maximum (%)” value in assay [2] (top dose 30 μM) is given as “C (“C” indicates maximum degradation <50%)”.

`Cc1ncsc1-c1ccc([C@H](C)NC(=O)[C@@H]2C[C@@H](O)CN2C(=O)[C@@H](c2cc(N3CC4(CC(c5ccc6cc(-c7ccccc7O)nnc6c5)C4)C3)no2)C(C)C)cc1` [Compound 34]: in assay [1], the DC50 was under 10 nM and the “BRM HiBit Degradation Maximum (%)” value was “A (“A” indicates maximum degradation ≥75%)”. In assay [2], the DC50 is over 10 nM. Moreover, the Dmax in assay [2] (top dose 30 μM) was over 75%.
